Values of other authors in US20150313903A1, “METHODS OF TREATING COGNITIVE IMPAIRMENT ASSOCIATED WITH NEURODEGENERATIVE DISORDERS” (Ovid Therapeutics Inc., priority 2014, published 2015).
Like-named read-outs stand apart in the source and are kept apart here.

Tests used:
[1] = parameters: key: *: shown to have a beneficial effect in ALS; settings: in vivo
serotonin-S2 receptor = serotonin-S2 receptor (Rattus norvegicus, UniProt P14842); settings: in vivo; dose as low as
[2] = not given; remark: listed apart in the source
[3] = MPTP model of parkinsonism in mice
[4] = generalized anxiety disorders, versus control subjects
[5] = in vivo
[6] = alcoholics
[7] = classical conditioning model
BDNF = settings: in vivo
dopamine transporter = biological target: T1, dopamine transporter (Homo sapiens, UniProt Q01959); settings: within the prefrontal cortex (PFC)
T1 construct: host or cells: prefrontal cortex

[8] = direct injection into the hippocampus, rats
[9] = subjects taking ritanserin
[10] = several trials, monotherapy
[11] = in vivo; remark: listed apart in the source
[12] = in vivo; remark: listed apart in the source
[13] = acute dose 10 mg, healthy volunteers
[14] = Parkinson's patients, later studies
[15] = open pilot trial, parkinsonian patients

T1 sequence (Q01959 whole entry): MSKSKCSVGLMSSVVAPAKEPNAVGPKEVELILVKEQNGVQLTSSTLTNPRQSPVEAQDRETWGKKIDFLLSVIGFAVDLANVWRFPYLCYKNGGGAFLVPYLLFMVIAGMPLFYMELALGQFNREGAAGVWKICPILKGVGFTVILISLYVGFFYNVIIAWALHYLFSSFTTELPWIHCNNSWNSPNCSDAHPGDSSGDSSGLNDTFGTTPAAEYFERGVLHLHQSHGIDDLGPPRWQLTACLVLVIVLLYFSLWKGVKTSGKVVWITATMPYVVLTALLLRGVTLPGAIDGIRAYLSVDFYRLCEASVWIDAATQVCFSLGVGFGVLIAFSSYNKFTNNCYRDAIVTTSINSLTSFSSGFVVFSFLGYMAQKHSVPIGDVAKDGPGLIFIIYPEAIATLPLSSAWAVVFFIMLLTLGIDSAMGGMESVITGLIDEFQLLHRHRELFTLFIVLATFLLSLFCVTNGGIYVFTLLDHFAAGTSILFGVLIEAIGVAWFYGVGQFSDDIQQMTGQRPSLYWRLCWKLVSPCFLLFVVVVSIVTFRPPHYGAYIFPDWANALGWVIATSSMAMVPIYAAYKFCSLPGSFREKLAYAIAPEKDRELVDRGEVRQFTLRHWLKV
Sequence of serotonin-S2 receptor (P14842 whole entry): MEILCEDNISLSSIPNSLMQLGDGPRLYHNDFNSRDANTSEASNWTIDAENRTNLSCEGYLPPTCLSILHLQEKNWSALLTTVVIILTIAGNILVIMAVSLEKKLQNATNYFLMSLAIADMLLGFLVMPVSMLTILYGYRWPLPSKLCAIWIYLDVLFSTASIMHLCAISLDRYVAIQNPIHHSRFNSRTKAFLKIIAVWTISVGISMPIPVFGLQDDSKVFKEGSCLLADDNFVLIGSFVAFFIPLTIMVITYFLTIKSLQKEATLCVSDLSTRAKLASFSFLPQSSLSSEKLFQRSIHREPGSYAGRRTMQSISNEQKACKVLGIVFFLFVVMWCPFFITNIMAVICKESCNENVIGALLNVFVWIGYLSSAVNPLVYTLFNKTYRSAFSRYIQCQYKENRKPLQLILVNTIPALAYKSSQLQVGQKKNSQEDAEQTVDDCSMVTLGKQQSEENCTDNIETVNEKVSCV

For `Nc1nc2ccc(OC(F)(F)F)cc2s1` [Riluzole, 2-amino-6-(trifluoromethoxy) benzothiazole], the “beneficial effect in ALS (asterisk mark)” value [1] is given as “*Riluzole”.

In the case of `Cc1nc2sccn2c(=O)c1CCN1CCC(=C(c2ccc(F)cc2)c2ccc(F)cc2)CC1` [ritanserin, 6-[2-[4-[bis(4-fluorophenyl)methylene]-1-piperidinyl]ethyl]-7-methyl-5H-thiazolo[3,2-a]pyrimidin-5-one], the “dose giving 50% serotonin-S2 receptor occupation” value (serotonin-S2 receptor) is listed as 0.08 m/kg, the “effect on REM sleep” value [13] is listed as “decreased REM sleep” and the “effect on Stage 2 sleep” value [13] is listed as “decreased Stage 2 sleep”. For the same compound, the “effect on slow-wave sleep” value [13] was “increased slow-wave sleep”, the “increase in SWS during the night, on average” value (administered just before bedtime) was “about 52 minutes” and the “psychomotor sedation during the day” value (after morning administration) was “no psychomotor sedation”. The “tolerance to the sleep-enhancing effects” value (after repeated administration) was “no tolerance”, the SWS duration (at clinical doses) was “can double SWS duration” and the “average increase in slow-wave sleep” value (dose 1 mg) was 53 min. The “average increase in slow-wave sleep” value (dose 3 mg) was 82 min, the “average increase in slow-wave sleep” value (dose 10 mg) was 101 min and the “average increase in slow-wave sleep” value (dose 30 mg) was 136.5 min. The “increase in SWS during the night, on average” value (morning administration) was “about 94 minutes”, the bradykinesia [2, 14] was “reduced bradykinesia” and the gait [2, 14] was “improved gait”. The L-Dopa-induced dyskinesia [2, 15] was “reduced L-Dopa-induced dyskinesia”, the “tremor, rigidity, or akinesia” value [2, 15] was “no significant modifying” and the motor deficit [3] was “reduced motor deficit”. The “self-rating of treated subjects” value [4] was “calmer, more relaxed, and more energetic than control subjects”, the “blocking the physiological effects of LSD” value [5] was “some activity” and the “outcome of Phase 3 trial for alcohol abstinence” value [6] was “failed a Phase 3 trial”. For the same compound, the effect on learning [7] was “impair learning”, the “expression of brain (hippocampal) BDNF” value (BDNF) was “increases the expression” and the “inhibition of the dopamine transporter” value (dopamine transporter) was “selectively inhibit the dopamine transporter”. The effect on learning [8] was “inhibit learning”, the weight gain [9] was “Weight gain is not observed” and the efficacy in schizophrenia [10] was “did show efficacy”.

For `CC(C)COc1ccc(CNC(=O)N(Cc2ccc(F)cc2)C2CCN(C)CC2)cc1` [Pimavanserin], the “efficacy in psychosis associated with Parkinson's disease” value [11] is given as “effective” and the “reversing PCP-induced deficits” value [12] is given as “no activity”.
